PubChem BioAssay AID248 (DTP/NCI, 2004)
Where “and” joins values, the source holds several entries; their conditions need not be identical. Equal entries are not always repeated. Inconclusive results and toxic doses are left out. No stated cut-off is given here; in the data, active means T/C of 150% or more; inactive means T/C below 125%.

Test system: L1210 leukemia ip in BDF1 mice, survival T/C
Assay: NCI In Vivo Anticancer Drug Screen. Data for tumor model L1210 Leukemia (intraperitoneal) in B6D2F1 (BDF1) mice
Conditions: endpoint: mean survival time, higher = longer survival
Procedure, shortened: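 Value reflects the ratio of survival in compound-treated mice to survival in vehicle-treated controls, with both groups carrying the same transplanted tumor.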

[1] = dose: 100.0 mg/kg/injection, schedule: Q04DX003 (ip), vehicle: saline with Tween-80
[2] = dose: 200.0 mg/kg/injection, schedule: Q04DX003 (ip), vehicle: saline with Tween-80
[3] = dose: 50.0 mg/kg/injection, schedule: Q01DX009 (ip), vehicle: saline with Tween-80
[4] = dose: 100.0 mg/kg/injection, schedule: Q01DX009 (ip), vehicle: saline with Tween-80
[5] = dose: 200.0 mg/kg/injection, schedule: Q01DX009 (ip), vehicle: saline with Tween-80
[6] = dose: 100.0 mg/kg/injection, schedule: Q04DX003 (ip), vehicle: Klucel (hydroxypropylcellulose) (HPC)
[7] = dose: 200.0 mg/kg/injection, schedule: Q04DX003 (ip), vehicle: Klucel (hydroxypropylcellulose) (HPC)
[8] = dose: 400.0 mg/kg/injection, schedule: Q04DX003 (ip), vehicle: Klucel (hydroxypropylcellulose) (HPC)
[9] = dose: 50.0 mg/kg/injection, schedule: Q04DX003 (ip), vehicle: saline with Tween-80
[10] = dose: 400.0 mg/kg/injection, schedule: Q04DX003 (ip), vehicle: saline with Tween-80
[11] = dose: 100.0 mg/kg/injection, schedule: Q04DX003 (ip), vehicle: saline
[12] = dose: 200.0 mg/kg/injection, schedule: Q04DX003 (ip), vehicle: saline

Measured: T/C

NC(CCSCc1ccccc1)C(=O)O (centres undefined)
inactive: dose: 12.5 mg/kg/injection, schedule: Q04DX002 (ip), vehicle: Klucel (hydroxypropylcellulose) (HPC) 107 % of control | dose: 25.0 mg/kg/injection, schedule: Q04DX002 (ip), vehicle: Klucel (hydroxypropylcellulose) (HPC) 97 % of control | dose: 50.0 mg/kg/injection, schedule: Q04DX002 (ip), vehicle: Klucel (hydroxypropylcellulose) (HPC) 97 % of control | dose: 100.0 mg/kg/injection, schedule: Q04DX002 (ip), vehicle: Klucel (hydroxypropylcellulose) (HPC) 113 % of control | dose: 200.0 mg/kg/injection, schedule: Q04DX002 (ip), vehicle: Klucel (hydroxypropylcellulose) (HPC) 98 % of control | dose: 400.0 mg/kg/injection, schedule: Q04DX002 (ip), vehicle: Klucel (hydroxypropylcellulose) (HPC) 98 % of control

O=P(Oc1ccccc1)(Oc1ccccc1)C(Nc1ccccc1)c1cccnc1 (centres undefined)
inactive: [1] 89 % of control | [2] 103 % of control

CCOC(=O)CCC(C)(C#N)C(C#N)C(=O)OCC (centres undefined)
inactive: dose: 100.0 mg/kg/injection, schedule: Q01DX009 (ip), vehicle: saline sonified 97 % of control | dose: 100.0 mg/kg/injection, schedule: Q04DX003 (ip), vehicle: saline sonified 108 % of control | dose: 200.0 mg/kg/injection, schedule: Q01DX009 (ip), vehicle: saline sonified 110 % of control | dose: 200.0 mg/kg/injection, schedule: Q04DX003 (ip), vehicle: saline sonified 97 % of control | dose: 400.0 mg/kg/injection, schedule: Q01DX009 (ip), vehicle: saline sonified 100 % of control | dose: 400.0 mg/kg/injection, schedule: Q04DX003 (ip), vehicle: saline sonified 98 % of control

O=I(=O)c1ccccc1
inactive: dose: 25.0 mg/kg/injection, schedule: Q01DX009 (ip), vehicle: saline with Tween-80 101 % of control | [3] 103 % of control | [4] 97 % of control | [1] 96 % of control

Cc1cc(=O)n(-c2ccccc2)c2ccccc12
inactive: dose: 100.0 mg/kg/injection, schedule: Q01DX001 (ip), vehicle: saline 103 % of control | dose: 200.0 mg/kg/injection, schedule: Q01DX001 (ip), vehicle: saline 97 % of control | dose: 400.0 mg/kg/injection, schedule: Q01DX001 (ip), vehicle: saline 100 % of control

CCc1cc2c(cc1C(=O)/C=C\c1ccco1)C(C)(C)CCC2(C)C
inactive: [4] 103 % of control | dose: 100.0 mg/kg/injection, schedule: Q04DX002 (ip), vehicle: saline with Tween-80 96 % of control | [5] 95 % of control | dose: 200.0 mg/kg/injection, schedule: Q04DX002 (ip), vehicle: saline with Tween-80 93 % of control | dose: 400.0 mg/kg/injection, schedule: Q01DX009 (ip), vehicle: saline with Tween-80 106 % of control | dose: 400.0 mg/kg/injection, schedule: Q04DX002 (ip), vehicle: saline with Tween-80 93 % of control

COc1cc2c(cc1O)C(=O)CCC2
inactive: [3] 107 % of control | [4] 96 % of control | [5] 93 % of control

CCC(=O)Nc1cccc(Cl)c1
inactive: [4] 97 % of control | [6] 97 % of control | [5] 103 % of control | [7] 97 % of control | [8] 108 % of control

Cc1c(C(=O)O)c(C)c([N+](=O)[O-])c(C)c1[N+](=O)[O-]
inactive: [9] 95 % of control | [6] 90 % of control | [1] 97 % of control | [7] 95 % of control | [2] 97 % of control | [8] 93 % of control

C/C(CC(C)(C)c1ccccc1)=N/NC(N)=O
inactive: dose: 100.0 mg/kg/injection, schedule: Q01DX009 (ip), vehicle: Klucel (hydroxypropylcellulose) (HPC) 104 % of control | dose: 200.0 mg/kg/injection, schedule: Q01DX009 (ip), vehicle: Klucel (hydroxypropylcellulose) (HPC) 98 % of control

NC(=O)c1nnc(-c2ccc(Cl)cc2)[nH]c1=O
inactive: [1] 98 % of control | [2] 98 % of control | [10] 98 % of control

C=C1C(=O)OC2/C=C(\C)CC(O)/C=C(/C)CCC12 (centres undefined)
inactive: dose: 12.5 mg/kg/injection, schedule: Q04DX003 (ip), vehicle: Klucel (hydroxypropylcellulose) (HPC) 96 % of control | dose: 25.0 mg/kg/injection, schedule: Q04DX003 (ip), vehicle: Klucel (hydroxypropylcellulose) (HPC) 105 % of control | dose: 50.0 mg/kg/injection, schedule: Q04DX003 (ip), vehicle: Klucel (hydroxypropylcellulose) (HPC) 100 % of control

O=C(Nc1ccc(Cl)cc1)Nc1ncn[nH]1
inactive: dose: 75.0 mg/kg/injection, schedule: Q01DX001 (ip), vehicle: carboxymethylcellulose (CMC) 101 % of control | dose: 150.0 mg/kg/injection, schedule: Q01DX001 (ip), vehicle: carboxymethylcellulose (CMC) 97 % of control | dose: 300.0 mg/kg/injection, schedule: Q01DX001 (ip), vehicle: carboxymethylcellulose (CMC) 95 % of control

Cc1cc(C)c(NS(=O)(=O)c2ccc([N+](=O)[O-])cc2)c(C)c1
inactive: [1] 89 % of control | [2] 93 % of control | [10] 86 % of control

CCOC(=O)N/N=C(/C)OCC
inactive: [11] 102 % of control | [12] 102 % of control

CCC(/C=N/N=C(N)N)=N\N=C(N)N
inactive: dose: 15.0 mg/kg/injection, schedule: Q01DX Z (ip), vehicle: saline 97 % of control | dose: 30.0 mg/kg/injection, schedule: Q01DX Z (ip), vehicle: saline 103 % of control | dose: 30.0 mg/kg/injection, schedule: Q01DX Z (oral), vehicle: saline 102 % of control | dose: 60.0 mg/kg/injection, schedule: Q01DX Z (ip), vehicle: saline 103 % of control and 115 % of control | dose: 60.0 mg/kg/injection, schedule: Q01DX Z (oral), vehicle: saline 101 % of control | dose: 120.0 mg/kg/injection, schedule: Q01DX Z (ip), vehicle: saline 108 % of control | dose: 120.0 mg/kg/injection, schedule: Q01DX Z (oral), vehicle: saline 97 % of control and 106 % of control | dose: 240.0 mg/kg/injection, schedule: Q01DX Z (oral), vehicle: saline 102 % of control and 104 % of control | dose: 480.0 mg/kg/injection, schedule: Q01DX Z (oral), vehicle: saline 111 % of control

Clc1cc(Cl)c(SSc2cc(Cl)c(Cl)cc2Cl)cc1Cl
inactive: [3] 102 % of control | [4] 98 % of control | [5] 98 % of control

NC(=S)N/N=C\c1nccc2c(C(=O)O)cccc12
inactive: dose: 100.0 mg/kg/injection, schedule: Q04DX002 (ip), vehicle: saline 106 % of control | dose: 200.0 mg/kg/injection, schedule: Q04DX002 (ip), vehicle: saline 106 % of control

CC(C)OC(=O)c1ccccc1-c1ccccc1
inactive: dose: 100.0 mg/kg/injection, schedule: Q01DX001 (ip), vehicle: other 102 % of control | dose: 200.0 mg/kg/injection, schedule: Q01DX001 (ip), vehicle: other 96 % of control | dose: 400.0 mg/kg/injection, schedule: Q01DX001 (ip), vehicle: other 87 % of control

CCCCCCCCOP(OCCCCCCCC)OCCCCCCCC
inactive: [11] 95 % of control | [12] 98 % of control | dose: 400.0 mg/kg/injection, schedule: Q04DX003 (ip), vehicle: saline 104 % of control

OC(c1ccccc1)C1CCCC1 (centres undefined)
inactive: [3] 90 % of control | [4] 93 % of control | [5] 90 % of control

CC(=O)c1ccc(Br)c2ccccc12
inactive: [9] 95 % of control | [1] 100 % of control | [2] 97 % of control | [10] 94 % of control
